Numbered stars: 1 amine (or outer) side, 2 acyl side, 3 side chain; on linkers, the order of the positions; unused ones are H or OH. Bridge positions count the residues as written; N and C are the ends. Square brackets hold non-standard residues; d marks the D form. Peptide text beside a SMILES is read from it. * marks the point of attachment. Cinnamoyl(2-(1Z-pentenyl)) = CCC/C=C\c1ccccc1/C=C/C(=O)*; X1 = CN(/C(=C/c1ccc(O)cc1)C(=O)[*:2])[*:1]; NMeY = CN[C@@H](Cc1ccc(O)cc1)C(=O)O; aThr = C[C@H](O)[C@H](N)C(=O)O; X2 = CCCCCc1ccccc1CCC(=O)*
Key:
[1] = system: neurokinin A induced bronchoconstriction; assay: Neurokinin A induced bronchoconstriction, intratrachea administration; format: in vivo, guinea-pigs; settings: for Inhibition (%) of neurokinin A response / ED50 mg/kg, inhibition of neurokinin A response: NKA 1 n mol/kg iv; for Effect of intratrachea administration on neurokinin A induced bronchoconstriction (in words): dissolved in DMSO; for Effect of intratrachea administration on neurokinin A induced bronchoconstriction (in words) / ED50 mg/kg, inhibition of neurokinin A response: intratrachea
Procedure: (§1) Male Hartley strain guinea-pigs weighing 300-500 g were immobilized with sodium pentobarbital (10 mg/animal administered intraperitoneally). The jugular vein was cannulated for administration of neurokinin A (or capsaicin) and drug. A catheter was also intubated into trachea for artifical ventilation. The animal was respirated by means of a miniature respiration pump (HARVARD B-34, 5 ml/stroke, 60 strokes/minute). Resistance to lung inflation was measured by a modification of Konzett-Rossler overflow technique.
The method was almost same as mentioned above.

[2] = system: acetic acid induced writhing; assay: Analgesic action, acetic acid induced writhing; format: in vivo; settings: male ddY mice; intraperitoneally 15 minutes before acetic acid
Procedure: Ten male ddY strain mice were used par group. To estimate the frequency of writhing syndrome, the animals were observed from 3 to 13 minutes after an intraperitoneal injection of 0.2 ml/10 g of 0.6% acetic acid. […] The frequency of writhing syndrome in the treated animals was compared with that in the non-treated control animals.

[3] = system: contractile responses of guinea pig trachea induced by substance P (SP); assay: Contractile response of guinea pig trachea induced by substance P; settings: for IC50: read-out: IC50 (M), SP 10^-8 M induced contraction
Procedure: (§3) Tracheal spiral strips were prepared from adult, male, albino Hartley strain guinea pigs (600 g) according to standard technique and placed in jacketed 30 ml glass tissue bath. […] Tracheal strips (2 mm width and 50 mm length) were suspended under a resting tension of 500 mg in 30 ml organ baths containing warm (37° C.) oxygenated (95% O2 : 5% CO2) Tyrode solution of following composition: NaCl 137 mM (8 g/liter), KCl 2.7 mM (0.2 g/liter), CaCl2 ·2H2 O 1.8 mM (0.264 g/liter), MgCl2 ·6H2 O 1.02mM (0.208 g/liter), NaHCO3 11.9 mM (1 g/liter), NaH2 PO4 ·2H2 O 0.42 mM (0.066 g/liter) and glucose 5.5 mM (1 g/liter).

[4] = system: neurokinin A induced bronchoconstriction; assay: Neurokinin A induced bronchoconstriction, drug iv; format: in vivo, guinea-pigs; settings: 10 mg/kg, n:5
Procedure: as §1
(§2) Agonist was administered iv and the antagonist drug (prepared in 0.1% methyl cellulose-saline) was administered iv as shown below. [drawing 7]

[5] = system: capsaicin induced bronchoconstriction; assay: Capsaicin induced bronchoconstriction, drug iv; format: in vivo, guinea-pigs; settings: 10 mg/kg, n:4
Procedure: as §1, §2

[6] = system: contractile responses of guinea pig trachea induced by neurokinin A (NKA); assay: Contractile response of guinea pig trachea induced by neurokinin A
Procedure: as §3

[7] = Solubility (physical and chemical properties); format: physicochemical
[8] = Acute toxicity, single intraperitoneal injection; settings: mouse, in vivo, ip, ddY mice, male
Procedure: Acute toxicity of WS-9326A was determined in ddY mice (5 weeks old, male) by a single intraperitoneal injection of graded dose of test compound into 5 mice.

[9] = target: T1, specific [^3 H] substance P binding to guinea pig lung membranes (Cavia porcellus, UniProt P30547); assay: ^3H-Substance P binding to guinea pig lung membranes (radioligand binding assay); settings: 3H-Substance P 1 nM, 4° C., 30 minutes, read-out: IC50 (M) lung, displacement of specific [3H] substance P binding
T1 construct: The trachea and lungs were removed, and stored at -80° C. until use; from tissue; host or cells: guinea pig trachea and lung crude membrane fraction
Procedure: Male albino Hartley strain guinea pigs (600 g) were sacrificed by decapitation. The trachea and lungs were removed, and stored at -80° C. until use. […] The tissue was homogenized with a Ultra-Disperser (YAMATO, MODEL LK-21) at a setting of maximum range for 10-s at 10-s intervals with cooling between homogenizations (total homogenization's time: 60 seconds). The homogenate was centrifuged (900×g for 10 min.) to remove tissue supernatant centrifuged at 14000×g for 20 min. to yield pellets which were referred to as crude membrane fractions. The pellets were resuspended in Medium I, homogenized with a teflon homogenizer and centrifuged at 14000×g for 20 min. The pellets were stored at -20° C.
^3 H-Substance P (1 nM, New England Nuclear) was incubated with 50 μl of the membrane preparation in medium I at 4° C. for 30 minutes in a final volume of 250 μl. At the end of the incubation period, its contents were quickly filtered over a whatmann GF/B glass fibre filter (pretreated with 0.1% polyethyleneimine for 3 hours prior to use) using cell harvester (BRANDEL M-24S). The filters were then washed ten times with a total of 3 ml of the washing buffer (50 mM Tris-HCl pH 7.5) at 0° C. The radioactivity was counted in 3 ml of Aquazol-2 in Packard sintillation counter (PACKARD TRI-CARB 4530).

[10] = intratrachea 0.03 mg/kg in DMSO, 20 minutes
[11] = intratrachea 0.03 mg/kg in DMSO, 35 minutes
[12] = intratrachea 0.03 mg/kg in DMSO, 50 minutes
[13] = intratrachea 0.03 mg/kg in DMSO, 65 minutes
[14] = intratrachea 0.3 mg/kg in DMSO, 20 minutes
[15] = intratrachea 0.3 mg/kg in DMSO, 35 minutes
[16] = intratrachea 0.3 mg/kg in DMSO, 50 minutes
[17] = intratrachea 0.3 mg/kg in DMSO, 65 minutes

T1 sequence (P30547 whole entry): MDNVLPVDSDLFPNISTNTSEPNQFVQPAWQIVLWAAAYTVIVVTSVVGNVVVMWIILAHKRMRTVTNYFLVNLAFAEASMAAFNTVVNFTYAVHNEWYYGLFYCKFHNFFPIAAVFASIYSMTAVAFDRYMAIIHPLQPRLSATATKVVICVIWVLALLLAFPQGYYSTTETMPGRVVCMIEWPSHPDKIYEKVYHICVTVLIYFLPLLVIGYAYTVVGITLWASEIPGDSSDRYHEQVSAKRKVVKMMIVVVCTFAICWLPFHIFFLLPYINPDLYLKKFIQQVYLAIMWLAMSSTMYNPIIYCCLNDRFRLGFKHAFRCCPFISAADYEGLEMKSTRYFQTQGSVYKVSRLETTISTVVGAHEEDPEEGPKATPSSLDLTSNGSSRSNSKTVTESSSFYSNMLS

## CCCCCc1ccccc1CCC(=O)N[C@@H]1C(=O)N(C)/C(=C/c2ccc(O)cc2)C(=O)N[C@@H](CC(C)C)C(=O)N[C@H](Cc2ccccc2)C(=O)N[C@@H]([C@H](C)O)C(=O)N[C@@H](CC(N)=O)C(=O)N[C@@H](CO)C(=O)O[C@@H]1C [Tetrahydro-WS-9326A, tetrahydro-WS-9326A] (X2-T[X1]L[dF][aThr]NS; ester 1-C; N-terminus assumed)
[1]; intratrachea 0.003 mg/kg in DMSO, 20 minutes
  Inhibition (%) of neurokinin A response: 5.4%
[1]; intratrachea 0.003 mg/kg in DMSO, 35 minutes
  Inhibition (%) of neurokinin A response: 23.5%
[1]; intratrachea 0.003 mg/kg in DMSO, 50 minutes
  Inhibition (%) of neurokinin A response: 17.2%
[1]; intratrachea 0.003 mg/kg in DMSO, 65 minutes
  Inhibition (%) of neurokinin A response: 12.6%
[1]; [10]
  Inhibition (%) of neurokinin A response: 50.0%
[1]; [11]
  Inhibition (%) of neurokinin A response: 50.9%
[1]; [12]
  Inhibition (%) of neurokinin A response: 51.4%
[1]; [13]
  Inhibition (%) of neurokinin A response: 43.0%
[1]; [14]
  Inhibition (%) of neurokinin A response: 77.7%
[1]; [15]
  Inhibition (%) of neurokinin A response: 75.7%
[1]; [16]
  Inhibition (%) of neurokinin A response: 74.6%
[1]; [17]
  Inhibition (%) of neurokinin A response: 71.1%
[1]
  Effect of intratrachea administration on neurokinin A induced bronchoconstriction (in words): highly potent
[2]
  ED50, acetic acid induced writhing: 5.5 mg/kg
[3]
  IC50: 3.1e-06 M
[4]; 2 minutes
  Inhibition (%) of neurokinin A (1 n mol/kg, iv) response: 41.0 ± 5.6%
[4]; 17 minutes
  Inhibition (%) of neurokinin A (1 n mol/kg, iv) response: 100.0 ± 0.0%
[4]; 32 minutes
  Inhibition (%) of neurokinin A (1 n mol/kg, iv) response: 99.2 ± 0.8%
[4]; 47 minutes
  Inhibition (%) of neurokinin A (1 n mol/kg, iv) response: 98.4 ± 1.6%
[4]; 62 minutes
  Inhibition (%) of neurokinin A (1 n mol/kg, iv) response: 100.0 ± 0.0%

## CCC/C=C\c1ccccc1/C=C/C(=O)N[C@@H]1C(=O)N(C)/C(=C/c2ccc(O)cc2)C(=O)N[C@@H](CC(C)C)C(=O)N[C@H](Cc2ccccc2)C(=O)N[C@@H]([C@H](C)O)C(=O)N[C@@H](CC(N)=O)C(=O)N[C@@H](CO)C(=O)O[C@@H]1C [WS-9326A] ({Cinnamoyl(2-(1Z-pentenyl))}-T[X1]L[dF][aThr]NS; ester 1-C; N-terminus assumed)
[1]; [10]
  Inhibition (%) of neurokinin A response: 32.3%
[1]; [11]
  Inhibition (%) of neurokinin A response: 28.4%
[1]; [12]
  Inhibition (%) of neurokinin A response: 35.6%
[1]; [13]
  Inhibition (%) of neurokinin A response: 35.5%
[1]; [14]
  Inhibition (%) of neurokinin A response: 50.6%
[1]; [15]
  Inhibition (%) of neurokinin A response: 42.4%
[1]; [16]
  Inhibition (%) of neurokinin A response: 44.9%
[1]; [17]
  Inhibition (%) of neurokinin A response: 42.0%
[1]; intratrachea 3 mg/kg in DMSO, 20 minutes
  Inhibition (%) of neurokinin A response: 73.4%
[1]; intratrachea 3 mg/kg in DMSO, 35 minutes
  Inhibition (%) of neurokinin A response: 79.4%
[1]; intratrachea 3 mg/kg in DMSO, 50 minutes
  Inhibition (%) of neurokinin A response: 81.7%
[1]; intratrachea 3 mg/kg in DMSO, 65 minutes
  Inhibition (%) of neurokinin A response: 77.7%
[1]
  Effect of intratrachea administration on neurokinin A induced bronchoconstriction (in words): highly potent
[1]; 20 minutes
  ED50 mg/kg, inhibition of neurokinin A response: 0.23 mg/kg
[1]; 35 minutes
  ED50 mg/kg, inhibition of neurokinin A response: 0.29 mg/kg
[1]; 50 minutes
  ED50 mg/kg, inhibition of neurokinin A response: 0.19 mg/kg
[1]; 65 minutes
  ED50 mg/kg, inhibition of neurokinin A response: 0.24 mg/kg
[5]; 2 minutes
  Inhibition (%) of capsaicin (10 n mol/kg, iv) response: 16.6 ± 5.1%
[5]; 17 minutes
  Inhibition (%) of capsaicin (10 n mol/kg, iv) response: 40.6 ± 12.2%
[5]; 32 minutes
  Inhibition (%) of capsaicin (10 n mol/kg, iv) response: 51.2 ± 10.4%
[5]; 47 minutes
  Inhibition (%) of capsaicin (10 n mol/kg, iv) response: 37.2 ± 19.7%
[5]; 62 minutes
  Inhibition (%) of capsaicin (10 n mol/kg, iv) response: 47.1 ± 16.7%
[6]; 3 μg/ml
  Inhibition % NKA 10^-9 M: 44%
[6]; 10 μg/ml
  Inhibition % NKA 10^-9 M: 79%
[6]; 30 μg/ml
  Inhibition % NKA 10^-9 M: 100%
[6]; read-out: IC50 (M), NKA 10^-9 M induced contraction
  IC50: 3.5e-06 M
[7]; acetone
  Solubility: Sparingly Soluble
[7]; chloroform
  Solubility: Insoluble
[7]; ethanol
  Solubility: Soluble
[7]; ethyl acetate
  Solubility: Sparingly Soluble
[7]; methanol
  Solubility: Soluble
[7]; water
  Solubility: Insoluble
[3]; 3 μg/ml
  Inhibition % SP 10^-8 M: -10%
[3]; 10 μg/ml
  Inhibition % SP 10^-8 M: 50%
[3]; 30 μg/ml
  Inhibition % SP 10^-8 M: 63%
[3]
  IC50: 9.7e-06 M
[8]
  LD50: 250 to 500 mg/kg
[4]; 2 minutes
  Inhibition (%) of neurokinin A (1 n mol/kg, iv) response: -16.5 ± 5.6%
[4]; 17 minutes
  Inhibition (%) of neurokinin A (1 n mol/kg, iv) response: 30.2 ± 12.9%
[4]; 32 minutes
  Inhibition (%) of neurokinin A (1 n mol/kg, iv) response: 45.8 ± 13.8%
[4]; 47 minutes
  Inhibition (%) of neurokinin A (1 n mol/kg, iv) response: 55.4 ± 8.1%
[4]; 62 minutes
  Inhibition (%) of neurokinin A (1 n mol/kg, iv) response: 49.9 ± 13.4%

## CCC/C=C\c1ccccc1/C=C/C(=O)N[C@@H]1C(=O)N(C)[C@@H](Cc2ccc(O)cc2)C(=O)N[C@@H](CC(C)C)C(=O)N[C@H](Cc2ccccc2)C(=O)N[C@@H]([C@H](C)O)C(=O)N[C@@H](CC(N)=O)C(=O)N[C@@H](CO)C(=O)O[C@@H]1C [WS-9326B] ({Cinnamoyl(2-(1Z-pentenyl))}-T[NMeY]L[dF][aThr]NS; ester 1-C)
[9]
  IC50: 8.8e-05 M
[7]; acetone
  Solubility: Insoluble
[7]; chloroform
  Solubility: Insoluble
[7]; ethanol
  Solubility: Sparingly Soluble
[7]; ethyl acetate
  Solubility: Insoluble
[7]; methanol
  Solubility: Soluble
[7]; water
  Solubility: Insoluble
